Data published in patent US7511041B2, “Fused azole-pyrimidine derivatives” (Bayer Pharmaceuticals Corporation, priority 2002, dated 2009).
Read-outs that look alike come from different tables or passages of the source.

What was measured:
[1] = biological target: T1, Recombinant human PI3Kγ (full length human PI3K p110γ) (Homo sapiens, UniProt P48736); assay: Kinase assay of PI3Kγ (solid-phase lipid kinase assay); type: biochemical
T1 construct: full length human PI3K p110γ fused with a His6-tag at the C-terminus; His6 (C); purchased ALEXIS BIOCHEMICALS #201-055-C010; host or cells: S. frugiperda 9 insect cells

[2] = in vitro PI3K-γ inhibitory activity, class symbols A-D, read-out: in vitro PI3K-gamma
[3] = Table 1, isozyme not given, read-out: in vitro
[4] = in vitro PI3K-γ inhibitory activity, class symbols, read-out: in vitro PI3K-gamma

T1 sequence (P48736 whole entry, the tested form may be a part): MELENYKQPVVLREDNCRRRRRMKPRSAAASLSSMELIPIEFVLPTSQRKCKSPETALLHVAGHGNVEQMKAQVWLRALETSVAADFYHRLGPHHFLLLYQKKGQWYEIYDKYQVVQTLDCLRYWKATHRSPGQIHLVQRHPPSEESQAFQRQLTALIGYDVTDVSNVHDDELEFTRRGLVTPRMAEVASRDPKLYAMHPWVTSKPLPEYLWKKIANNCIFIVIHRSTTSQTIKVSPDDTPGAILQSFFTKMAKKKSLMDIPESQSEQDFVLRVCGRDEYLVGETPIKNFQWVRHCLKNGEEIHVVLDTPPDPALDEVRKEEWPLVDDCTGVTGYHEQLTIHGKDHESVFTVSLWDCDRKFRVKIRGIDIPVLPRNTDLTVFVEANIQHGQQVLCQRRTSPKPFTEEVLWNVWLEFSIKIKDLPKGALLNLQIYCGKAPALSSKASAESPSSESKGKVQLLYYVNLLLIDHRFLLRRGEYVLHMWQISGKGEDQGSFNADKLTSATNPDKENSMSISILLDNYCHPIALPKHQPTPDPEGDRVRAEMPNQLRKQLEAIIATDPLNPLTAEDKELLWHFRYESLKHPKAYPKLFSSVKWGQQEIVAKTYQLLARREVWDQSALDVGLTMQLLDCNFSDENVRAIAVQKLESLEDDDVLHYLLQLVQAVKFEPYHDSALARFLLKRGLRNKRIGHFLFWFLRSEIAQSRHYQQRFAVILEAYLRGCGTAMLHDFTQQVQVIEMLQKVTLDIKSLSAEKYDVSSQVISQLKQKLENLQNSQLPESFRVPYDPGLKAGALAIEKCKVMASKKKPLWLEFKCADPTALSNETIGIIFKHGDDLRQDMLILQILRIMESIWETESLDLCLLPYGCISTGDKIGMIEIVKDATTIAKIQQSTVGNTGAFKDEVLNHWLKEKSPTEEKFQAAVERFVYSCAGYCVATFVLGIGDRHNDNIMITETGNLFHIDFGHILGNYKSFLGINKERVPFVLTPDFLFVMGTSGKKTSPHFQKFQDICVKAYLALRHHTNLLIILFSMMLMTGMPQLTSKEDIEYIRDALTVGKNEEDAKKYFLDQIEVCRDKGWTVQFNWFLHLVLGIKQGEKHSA

Row | melting point | IC50 [1, 2] | IC50 [1, 3] | IC50 [1, 4] | IC50 ([1]; activity class of IC50, read-out: In vitro PI3K-γ inhibitory activity) | SMILES
1 | 269 to 270 °C | > 2 µM | – | – | – | O=C(NC1=Nc2ccccc2C2=NCCN12)c1csc([N+](=O)[O-])c1 [Example 2-305]
2 | 204 to 205 °C | – | – | 0.1 to 0.5 µM | – | COc1cccc2c1N=C(NC(=O)c1cccnc1C)N1CCN=C21 [Example 2-116]
3 | 128 to 129 °C | 0.5 to 2 µM | – | – | – | Cn1cccc1C(=O)NC1=Nc2ccccc2C2=NCCN12 [Example 2-296]
4 | 215 °C (dec.) | – | – | 0.1 to 0.5 µM | – | Nc1ncccc1C(=O)NC1=Nc2ccccc2C2=NCCN12 [Example 2-133]
5 | 244 °C | > 2 µM | – | – | – | O=C(NC1=Nc2ccc(N3CCOCC3)cc2C2=NCCN12)c1cccnc1 [Example 2-347]
6 | 186 °C | – | – | < 0.1 µM | – | COc1ccc2c(c1)N=C(NC(=O)c1ccc3[nH]cnc3c1)N1CCN=C21 [Example 2-25]
7 | 193 to 194 °C | – | – | 0.1 to 0.5 µM | – | Cc1ncccc1C(=O)NC1=Nc2ccccc2C2=NCCN12 [Example 2-131]
8 | 124 °C | > 2 µM | – | – | – | O=C(NC1=Nc2ccc(N3CCOCC3)cc2C2=NCCN12)c1cccs1 [Example 2-348]
9 | 233 °C (dec.) | – | – | < 0.1 µM | – | COc1ccc2c(c1OC)N=C(NC(=O)c1cnc3[nH]cnc3c1)N1CCN=C21 [Example 2-51]
10 | 257 °C (dec.) | – | – | 0.1 to 0.5 µM | – | COc1cc2c(cc1OC)C1=NCCN1C(NC(=O)c1cncc(C)c1)=N2.Cl [Example 2-59]
11 | 202 to 204 °C | > 2 µM | – | – | – | COc1cccc(C(=O)NC2=Nc3ccccc3C3=NCCN23)c1 [Example 2-233]
12 | 235 °C (dec.) | – | – | 0.1 to 0.5 µM | – | COc1cc2c(c(OC)c1C)N=C(NC(=O)c1cccnc1)N1CCN=C21.Cl [Example 2-76]
13 | 289 to 290 °C | – | – | < 0.1 µM | – | Cc1nc(C)c(C(=O)NC2=Nc3ccccc3C3=NCCN23)s1.Cl [Example 2-190]
14 | 269 °C | 0.5 to 2 µM | – | – | – | CN(C)c1ccc2c(c1)C1=NCCN1C(NC(=O)c1cccnc1)=N2 [Example 2-345]
15 | 287 °C (dec.) | – | – | 0.1 to 0.5 µM | – | Cc1ccc(C(=O)NC2=Nc3ccccc3C3=NCCN23)c(Cl)n1.Cl [Example 2-156]
16 | 219 °C (dec.) | 0.5 to 2 µM | – | – | – | O=C(NC1=Nc2ccccc2C2=NCCN12)c1csnn1 [Example 2-307]
17 | 217 to 218 °C | – | – | 0.1 to 0.5 µM | – | O=C(NC1=Nc2ccccc2C2=NCCN12)c1ccoc1 [Example 2-185]
18 | 259 to 260 °C | > 2 µM | – | – | – | Cn1c(C(=O)NC2=Nc3ccccc3C3=NCCN23)cc2ccccc21 [Example 2-314]
19 | 265 °C (dec.) | – | – | 0.1 to 0.5 µM | – | O=C(NC1=Nc2ccccc2C2=NCCN12)c1c[nH]cn1 [Example 2-193]
20 | 202 °C | – | – | 0.1 to 0.5 µM | – | COc1cc2c(c(OC)c1C)N=C(NC(=O)c1ccc3[nH]cnc3c1)N1CCN=C21 [Example 2-81]
21 | 174 °C | 0.5 to 2 µM | – | – | – | O=C(NC1=Nc2ccc(Cl)cc2C2=NCCN12)c1cccs1 [Example 2-355]

Row | melting point | IC50 [1, 2] | IC50 [1, 3] | IC50 [1, 4] | IC50 ([1]; activity class of IC50, read-out: In vitro PI3K-γ inhibitory activity) | SMILES
22 | 265 to 267 °C | > 2 µM | – | – | – | O=C(NC1=Nc2ccccc2C2=NCCN12)c1cccc([N+](=O)[O-])c1 [Example 2-252]
23 | 257 °C (dec.) | 0.5 to 2 µM | – | – | – | Cc1cnc(C(=O)NC2=Nc3ccccc3C3=NCCN23)cn1 [Example 2-294]
24 | 121 to 122 °C | > 2 µM | – | – | – | CCCC(=O)NC1=Nc2ccccc2C2=NCCN12 [Example 2-328]
25 | 196 to 197 °C | > 2 µM | – | – | – | O=C(NC1=Nc2ccccc2C2=NCCN12)c1cccc(Cl)c1 [Example 2-227]
26 | 209 to 211 °C | > 2 µM | – | – | – | O=C(NC1=Nc2ccccc2C2=NCCN12)c1ccc(-n2cccn2)cc1 [Example 2-270]
27 | 252 °C (dec.) | – | – | 0.1 to 0.5 µM | – | Cc1ncccc1C(=O)NC1=Nc2cc(Br)ccc2C2=NCCN12.Cl [Example 2-43]
28 | 207 °C | – | – | < 0.1 µM | – | Cc1ccc2c(c1)N=C(NC(=O)c1cccnc1)N1CCN=C21 [Example 2-27]
29 | 146 to 148 °C | – | – | 0.1 to 0.5 µM | – | Cc1nc(N)ccc1C(=O)NC1=Nc2ccccc2C2=NCCN12 [Example 2-157]
30 | 278 °C (dec.) | 0.5 to 2 µM | – | – | – | NS(=O)(=O)c1ccc(C(=O)NC2=Nc3ccccc3C3=NCCN23)cc1 [Example 2-247]
31 | 295 °C | – | – | 0.1 to 0.5 µM | – | Cc1ccc2c(c1)N=C(NC(=O)c1ccc3[nH]cnc3c1)N1CCN=C21.Cl [Example 2-30]
32 | 274 °C (dec.) | > 2 µM | – | – | – | Cl.NC(=O)C1CN2C(NC(=O)c3cccnc3)=Nc3ccccc3C2=N1 (stereo not drawn) [Example 2-365]
33 | 278 °C (dec.) | > 2 µM | – | – | – | CS(=O)(=O)c1ccc(C(=O)NC2=Nc3ccccc3C3=NCCN23)cc1 [Example 2-245]
34 | 154 °C (dec.) | > 2 µM | – | – | – | CC(C)CC(=O)NC1=Nc2ccccc2C2=NCCN12 [Example 2-329]
35 | 300 °C (dec.) | > 2 µM | – | – | – | COc1ccc(C(=O)NC2=Nc3ccccc3C3=NCCN23)cc1 [Example 2-235]
36 | 281 °C (dec.) | – | – | 0.1 to 0.5 µM | – | COc1ccc2c(c1)N=C(NC(=O)c1cccnc1)N1CCN=C21 [Example 2-20]
37 | 243 °C | – | – | < 0.1 µM | – | Cl.O=C(NC1=Nc2cc(Br)ccc2C2=NCCN12)c1cccnc1 [Example 2-42]
38 | 296 °C | 0.1 to 0.5 µM | – | – | – | NC(=O)COc1ccc2c(c1)N=C(NC(=O)c1cccnc1)N1CCN=C21 [Example 2-206]
39 | 330 °C (dec.) | > 2 µM | – | – | – | COc1cc(OC)cc(C(=O)NC2=Nc3ccccc3C3=NCCN23)c1 [Example 2-239]
40 | 224 °C | – | – | 0.1 to 0.5 µM | – | COc1cc2c(cc1OC)C1=NCCN1C(NC(=O)c1ccc(NC(C)=O)nc1)=N2 [Example 2-57]
41 | 265 to 269 °C | – | – | < 0.1 µM | – | CS(=O)(=O)Nc1cncc(C(=O)NC2=Nc3ccccc3C3=NCCN23)c1 [Example 2-143]

Further lines, the molecule ahead of its results:

Row | SMILES | melting point | IC50 [1, 2] | IC50 [1, 3] | IC50 [1, 4] | IC50 ([1]; activity class of IC50, read-out: In vitro PI3K-γ inhibitory activity)
42 | COc1c(OCC(=O)OC(C)(C)C)ccc2c1N=C(/C=C(\O)c1cccnc1)N1CCN=C21 [Example 1-18] | 184 to 186 °C | – | 0.1 to 0.5 µM | – | –
43 | O/C(=C\C1=Nc2ccccc2C2=NCCN12)C(Cl)(Cl)Cl [Example 1-158] | 190 °C (dec.) | – | 0.1 to 0.5 µM | – | –
44 | COc1cc2c(cc1OC)C1=NCCN1C(/C=C(\O)c1ccc(NC(C)=O)nc1)=N2.Cl [Example 1-51] | 275 to 280 °C | – | 0.1 to 0.5 µM | – | –
45 | Cl.O/C(=C\C1=Nc2ccccc2C2=NCCN12)c1ccc2[nH]cnc2c1 [Example 1-157] | > 300 °C | – | 0.1 to 0.5 µM | – | –
46 | Cl.O/C(=C\C1=Nc2ccc(Br)cc2C2=NCCN12)c1cccnc1 [Example 1-129] | > 300 °C | – | 0.1 to 0.5 µM | – | –
47 | COc1c(OCC(N)=O)ccc2c1N=C(/C=C(\O)c1cccnc1)N1CCN=C21 [Example 1-23] | 297 to 298 °C | – | < 0.1 µM | – | –
48 | Cc1nc(C)c(/C(O)=C/C2=Nc3ccccc3C3=NCCN23)s1 [Example 1-156] | 222 °C | – | < 0.1 µM | – | –
49 | COc1cc2c(c(OC)c1C)N=C(/C=C(\O)c1ccc3[nH]cnc3c1)N1CCN=C21 [Example 1-66] | 280 °C | – | 0.1 to 0.5 µM | – | –
50 | COCOc1ccc2c(c1OC)N=C(/C=C(\O)c1cccnc1)N1CCN=C21 [Example 1-3, 2-[7-Methoxy-8-(methoxymethoxy)-2,3-dihydroimidazo[1,2-c]quinazolin-5-yl]-1-pyridin-3-ylethylenol] | 215 to 216 °C | – | – | – | 0.1 to 0.5 µM
51 | O/C(=C\C1=Nc2cc(C(F)(F)F)ccc2C2=NCCN12)c1cccnc1 [Example 1-121] | 264 °C | – | 0.5 to 2 µM | – | –
52 | O/C(=C\C1=Nc2c(OCCN3CCOCC3)cccc2C2=NCCN12)c1cccnc1 [Example 1-84] | 195 to 196 °C | – | 0.1 to 0.5 µM | – | –
53 | COC(=O)CCCOc1c(OC)ccc2c1N=C(/C=C(\O)c1cccnc1)N1CCN=C21.Cl [Example 1-199] | 178 to 179 °C | – | < 0.1 µM | – | –
54 | COc1c(OCC(=O)NC(C)C)ccc2c1N=C(/C=C(\O)c1cccnc1)N1CCN=C21.Cl [Example 1-26] | 245 °C (dec.) | – | < 0.1 µM | – | –
55 | Cc1nc(NC(=O)OC(C)(C)C)sc1/C(O)=C/C1=Nc2ccccc2C2=NCCN12 [Example 1-179] | > 300 °C | – | > 2 µM | – | –
56 | O/C(=C\C1=Nc2ccccc2C2=NCCN12)C(F)(F)F [Example 1-184] | 240 °C | – | 0.5 to 2 µM | – | –
57 | Nc1cncc(C(=O)NC2=Nc3ccccc3C3=NCCN23)c1.O=C(O)C(F)(F)F [Example 2-145] | 220 °C (dec.) | – | – | 0.1 to 0.5 µM | –
58 | N#Cc1ccc(C(=O)NC2=Nc3ccccc3C3=NCCN23)cc1.O=C(O)C(F)(F)F [Example 2-256] | 248 to 250 °C | > 2 µM | – | – | –
59 | O/C(=C\C1=Nc2ccc(Cl)cc2C2=NCCN12)c1cccnc1 [Example 1-189] | 260 °C | – | 0.5 to 2 µM | – | –
60 | CC(=O)Nc1ccc(/C(O)=C/C2=Nc3ccccc3C3=NCCN23)cn1.Cl [Example 1-138] | 327 °C | – | < 0.1 µM | – | –
61 | O/C(=C\C1=Nc2cnccc2C2=NCCN12)c1cccnc1 [Example 1-164] | 230 °C | – | 0.1 to 0.5 µM | – | –
62 | CCOc1ccc2c(c1OC)N=C(/C=C(\O)c1cccnc1)N1CCN=C21 [Example 1-13] | 267 to 268 °C | – | < 0.1 µM | – | –
63 | COc1cc2c(cc1OC)C1=NCCN1C(/C=C(\O)c1ccccc1)=N2 [Example 1-185] | 249 to 252 °C | – | 0.5 to 2 µM | – | –
